Source: patent publication US20240180923A1, “METHODS OF TREATING DISORDERS WITH ULK INHIBITORS” (Deciphera Pharmaceuticals, LLC, priority 2022, published 2024)
“Also recorded” adds a separate entry of the source. Read-outs that look alike come from different tables or passages of the source.

Legend:
[1] = Phase 1/2 first-in-human study, DCC-3116 monotherapy dose escalation: plasma pharmacokinetics; format: in vivo; details: for AUC(0-t) / Cmax / Tmax: human, plasma, oral
[2] = tested on: autophagy in MiaPaca2 cells; assay: mCherry/GFP LC3 autophagy flux assay in MiaPaca2, DCC-3116 with trametinib; format: cell-based; details: MiaPaca2 model, FIG. 5B
Method: (§1) Constructs were designed through VectorBuilder. For each cell line, 10 ml of appropriate media was mixed with Polybrene (VectorBuilder, Cat #PL0001, stock concentration 5 mg/ml, 200 ul) to a final concentration of 15 ng/μL. These solutions were added to the 6-well plate with various cell lines plated the previous day. Cells were checked after 22 hours of incubation. Media was then removed from the cells and incubated with fresh media containing puromycin (Sigma Cat #P9620). Cells that survived puromycin selection and successfully expressed mCherry-GFP-LC3 were used for flux assays.
(§2) Cells are seeded in FluoroBrite DMEM (Gibco Ref #A18967-01) supplemented with 10% FBS (Gibco ref #A384000-001) and Pen/Strep/Glutamine (Gibco Ref #10378-016) at appropriate seeding numbers defined empirically. The next day, cells are treated with DCC-3116 and/or trametinib or DMSO as a control. Cells are placed in the IncuCyte for live cell imaging over the indicated time length at 37° C. with 20% 02 and 5% CO2. Cells were imaged at 4× objective lens every four hours. The data was analyzed using the Incucyte software by measuring Total Integrated Intensity (GCUX μM2/images) of red (mCherry) divided by (GCUX μM2/images) green (GFP) to measure the ratio of red/green signal change over time.

[3] = tested on: MiaPaca2 pancreatic model; assay: MiaPaca2 pancreatic xenograft efficacy model, DCC-3116 with trametinib; format: in vivo, mouse; details: FIG. 5C
Text: (§3) When tumor burdens reached 159 mm^3 on average on day 6, mice were randomly assigned into groups such that the mean tumor burden for all groups was within 10% of the overall mean tumor burden for the study population.

[4] = tested on: autophagic flux in NSCLC cell lines; assay: Autophagy flux assay in NSCLC cell lines, DCC-3116 with trametinib; format: cell-based; details: multiple NSCLC cell lines, FIG. 6B
Method: as §1, §2

[5] = tested on: autophagy in A549 NSCLC cell line; assay: Autophagy in A549 NSCLC line (FIG. 7B), DCC-3116 with trametinib; format: cell-based
H358 xenograft = H358 xenograft efficacy model, DCC-3116 with trametinib; format: in vivo, mouse; details: FIG. 8
Method: When tumor burdens reached 200-300 mm3 average, mice were randomly assigned into groups such that the mean tumor burden for all groups was within 10% of the overall mean tumor burden for the study population. […] Trametinib was dosed with a PBS vehicle. Tumor burden was measured twice a week.

SK-MEL-30 xenograft = assay: SK-MEL-30 (NRAS mutant melanoma) xenograft in athymic nude rats, DCC-3116 with binimetinib; format: in vivo, rat; details: NRAS mutant melanoma xenograft model, FIG. 9A
Method: Female athymic nude rats were inoculated with 5×10^6 cells/animal from the cell line SK-MEL-30. Animals were inoculated subcutaneously into the right flank at a volume of 0.2 mL cell/matrigel matrix suspension. When a mean tumor volume of 255 mm3 was reached, animals were assigned to 10 groups (n=8 per group) based on tumor measurement and body weight. […] Tumor volume and body weight measurements were recorded for 14 days post the end of the dosing phase. Animals were sacrificed when the tumor burden limit of 5000 mm3 was reached.

[6] = tested on: autophagy flux in GIST-T1 cell line; assay: Autophagy flux assay in GIST-T1 cell line, DCC-3116 with ripretinib; format: cell-based; details: FIG. 11B
Method: as §1
as §2, with “ripretinib” for “trametinib”

GIST-T1 cancer model = assay: GIST-T1 xenograft efficacy model, DCC-3116 with ripretinib; format: in vivo, mouse; details: KIT-mutated GIST, FIG. 11C
Method: When tumor burdens reached 82 mm^3 on average, mice were randomly assigned into groups such that the mean tumor burden for all groups was within 10% of the overall mean tumor burden for the study population. […] Tumor burden was measured twice a week. Animals were followed post-dosing to measure tumor regrowth.

H358 lung cancer model = assay: H358 lung cancer xenograft efficacy model, DCC-3116 with sotorasib (AMG-510); format: in vivo, mouse; details: sotorasib 1, 3, 10, 30 mg/kg, FIGS. 12C, 13A-D
Text: as §3, with “221” for “159”, “20,” for “6,”, “population. […] The vehicle used for AMG-510 was 0.5% Hydroxypropyl Methylcellulose (w/v), 1% polysorbate.” for “population.”

ULK [7] = assay: pATG13 ELISA in HT-29 cells, DCC-3116 with encorafenib and cetuximab; format: cell-based; details: HT-29 BRAF V600E-mutated colorectal cancer cell line, FIG. 18A
Text: Data was plotted in GraphPad Prism and fit to a sigmoidal dose response curve to generate IC50 values.

HT-29 colorectal model = assay: HT-29 BRAF V600E colorectal xenograft tumor burden study; format: in vivo, mouse; details: HT-29, FIGS. 20A-D
Method: Tumor burden was measured twice a week.

ULK [8] = assay: pATG13 ELISA in Colo-205 cells, DCC-3116 with encorafenib and cetuximab; format: cell-based; details: Colo-205 cell line, FIG. 23
Method: Plates were incubated for 45 hr.

[9] = Phase 1/2 study, DCC-3116 monotherapy: safety (DLTs, TEAEs, SAEs)
[10] = Cohort A1, 50 mg BID monotherapy, Cycle 1 Day 15
[11] = Cohort A2, 100 mg BID monotherapy, Cycle 1 Day 15
[12] = Cohort A3, 200 mg BID monotherapy, Cycle 1 Day 15
[13] = Cohort A4, 300 mg BID monotherapy, Cycle 1 Day 15

With `CCc1cc(N2CCN(C)CC2)ccc1Nc1ncc(C(F)(F)F)c(NCCCN2CCOCCC2=O)n1` [DCC-3116] the “Ctrough, predose plasma concentration (GM [CV %])” value (from here on “Ctrough … (GM [CV %])”) [1, 10] was 118 (290) ng/mL, the “Ctrough … (GM [CV %])” value [1, 11] was 542 (66) ng/mL and the “Ctrough … (GM [CV %])” value [1, 12] was 751 (82) ng/mL. For the same compound, the “Ctrough … (GM [CV %])” value [1, 13] was 1109 (124) ng/mL, the “dose proportionality of exposure (AUC)” value ([1]; across 50-300 mg BID) was “increase proportionally to dose” and the “exposure (total and calculated unbound AUC, C1D15) versus efficacious preclinical exposures with trametinib” value ([1]; doses ≥100 mg BID, compared with MiaPaca-2 xenograft mice) was “exceeded efficacious exposures; also recorded: exceeded exposures associated with anticancer activity”. It also gave an AUC(0-t) ([1]; 50 mg, Cohort A1, 50 mg BID monotherapy, Cycle 1 Day 15, read-out: AUC0-10 h (GM [CV %])) of 3540 ng·h/mL, an AUC(0-t) ([1]; 50 mg, Cohort A1, 50 mg BID, Cycle 1 Day 15, predose concentration imputed to 12 hours, read-out: AUC0-12 h (GM [CV %])) of 3980 ng·h/mL and an AUC(0-t) ([1]; 100 mg, Cohort A2, 100 mg BID monotherapy, Cycle 1 Day 15, read-out: AUC0-10 h (GM [CV %])) of 8540 ng·h/mL. It also gave an AUC(0-t) ([1]; 100 mg, Cohort A2, 100 mg BID, Cycle 1 Day 15, predose concentration imputed to 12 hours, read-out: AUC0-12 h (GM [CV %])) of 9840 ng·h/mL, an AUC(0-t) ([1]; 200 mg, Cohort A3, 200 mg BID monotherapy, Cycle 1 Day 15, read-out: AUC0-10 h (GM [CV %])) of 13800 ng·h/mL and an AUC(0-t) ([1]; 200 mg, Cohort A3, 200 mg BID, Cycle 1 Day 15, predose concentration imputed to 12 hours, read-out: AUC0-12 h (GM [CV %])) of 15600 ng·h/mL. It also gave an AUC(0-t) ([1]; 300 mg, Cohort A4, 300 mg BID monotherapy, Cycle 1 Day 15, read-out: AUC0-10 h (GM [CV %])) of 13700 ng·h/mL, an AUC(0-t) ([1]; 300 mg, Cohort A4, 300 mg BID, Cycle 1 Day 15, predose concentration imputed to 12 hours, read-out: AUC0-12 h (GM [CV %])) of 16400 ng·h/mL and a Cmax [1, 10] of 724 ng/mL. For the same compound, the Tmax ([1]; Cohort A1, 50 mg BID monotherapy, Cycle 1 Day 15, read-out: tmax (Median [Min, Max])) was 2 h, the Cmax [1, 11] was 1140 ng/mL and the Tmax ([1]; Cohort A2, 100 mg BID monotherapy, Cycle 1 Day 15, read-out: tmax (Median [Min, Max])) was 4 h. For the same compound, the Cmax [1, 12] was 2220 ng/mL, the Tmax ([1]; Cohort A3, 200 mg BID monotherapy, Cycle 1 Day 15, read-out: tmax (Median [Min, Max])) was 3 h and the Cmax [1, 13] was 2040 ng/mL. The Tmax ([1]; Cohort A4, 300 mg BID monotherapy, Cycle 1 Day 15, read-out: tmax (Median [Min, Max])) was 2 h, the Tmax ([1]; Cycle 1 Day 15, after exclusion of profiles with tmax≥10 h, read-out: tmax range) was 2 to 8 h and the “effect on trametinib activation of autophagy” value [2] was “reversal”. The “combination effect with trametinib” value [3] was “combine with trametinib; also recorded: additivity”, the “effect on trametinib-induced autophagic flux” value [4] was “inhibited” and the “effect on trametinib activation of autophagy” value [5] was “reversal”. For the same compound, the “tumor response in combination with trametinib” value (H358 xenograft) was “induce tumor regressions”, the “combination effect with binimetinib on tumor growth” value (SK-MEL-30 xenograft) was “combines with binimetinib” and the “effect on ripretinib-induced autophagy flux” value [6] was “inhibits”. The “combination effect with ripretinib” value (GIST-T1 cancer model) was “combines with ripretinib; also recorded: synergy”, the “combination effect with sotorasib on tumor growth / regression” value (H358 lung cancer model) was “increases tumor regression; also recorded: additivity” and the “combination effect with encorafenib and cetuximab, pATG13 ELISA” value (ULK [7]) was “combine with encorafenib and cetuximab”. For the same compound, the “tumor burden in combination with encorafenib and cetuximab” value (HT-29 colorectal model) was “reduces tumor burden”, the “effect on encorafenib- and cetuximab-induced phosphorylation of ATG13” value (ULK [8]) was “inhibited; also recorded: dose-dependent inhibition” and the “participants with reversible asymptomatic related Grade 3 ALT increased leading to dose interruption and reduction” value ([9]; 200 mg BID dose level) was 1 participant. The “participants with reversible asymptomatic related Grade 3 ALT increased leading to dose interruption and reduction” value ([9]; 300 mg BID dose level) was 1 participant, the “safety profile / tolerability” value ([9]; doses between 50 and 300 mg BID) was “acceptable safety profile; also recorded: well tolerated” and the “DLTs or treatment-related serious adverse events” value ([9]; monotherapy, 50-300 mg BID) was “No DLTs or treatment-related serious treatment emergent adverse events (TEAEs) were reported; also recorded: No dose-limiting toxicities (DLTs) or treatment-related serious adverse events (SAEs) were observed”. For the same compound, the “grade of other treatment-related / treatment-emergent adverse events” value ([9]; monotherapy, 50-300 mg BID) was “mainly Grade 1 or 2” and the maximum tolerated dose ([9]; monotherapy, up to 300 mg BID) was “not reached”.
